Key:
[1] = Sealed storage stability, other studies, 36 months; assay type: physicochemical; conditions: 25±2° C., for 36 months; stable = absorbs less than 2 wt % water and impurity content of less than 2 wt %
Source text: (§1) “Sealed storage stability” refers to the stability of a compound that is enclosed within two sealed polyethylene bags with a desiccant material placed between the two polyethylene bags and the two sealed polyethylene bags are enclosed within a sealed one-layer aluminum bag.
Stability is defined as the sample of crystalline 4-((L-valyl)oxy)butanoic acid absorbs less than 2 wt % water and an impurity content of less than 2 wt % for a period of time under the indicated sealed storage conditions.

[2] = Sealed storage stability study (ICH Q1A (R2)), four storage conditions, 3- and 6-month timepoints; assay type: physicochemical; set-up: key to Crystalline Form: C = Conforms; N/A = Not Applicable; conditions: for Crystalline Form: XRPD; for Crystalline Form / Assay / Total Impurities / Water Content: sealed storage
Source text: as §1
Crystalline 4-((L-valyl)oxy)butanoic acid was packaged in double low-density polyethylene (LDPE) zipper bags and sealed. The packaged samples were then placed within an aluminum foil outer bag (polyethylene, polyethylene terephthalate three-layer composite) and sealed. The fully packaged samples were placed in stability chambers for the duration of the sealed storage stability study.
Sealed storage stability studies were carried out under four sets of conditions external to the packaged crystalline 4-((L-valyl)oxy)butanoic acid: • 1. Accelerated conditions ([…], 75±5% RH). • 2. Intermediate storage condition ([…], 65±5% RH). • 3. Long-term storage condition (25±2° C., […]). • 4. 2-8° C. conditions.
The sealed storage stability of crystalline 4-((L-valyl)oxy)butanoic acid (1) was tested according to the International Council for Harmonization of Technical Requirements for Pharmaceuticals for Human Use (ICH) document Q1A (R2) “Stability Testing of New Drug Substances and Products.” Accordingly, samples were pulled at 3- and 6-month timepoints. The assay percentage of the crystalline 4-((L-valyl)oxy)butanoic acid was determined by electrochemical titration using acetic acid as the solvent and perchloric acid as the titrant. Water content was tested by Karl Fischer titration (Karl Fisher Titrator: Mettler V30). Impurities were measured by HPLC (HPLC Instrument: Waters Arc HPLC system with CAD; Column: Waters Atlantis T3, 4.6×150 mm, 3 μm). The samples were analyzed by XRPD analysis (XRPD Instrument: Bruker D8 advance). The sealed storage stability results of crystalline 4-((L-valyl)oxy)butanoic acid stored under the four storage conditions are summarized in Table 2.

[3] = up to 6 months under all sealed storage conditions

## CC(C)[C@H](N)C(=O)OCCCC(=O)O [4-((L-valyl)oxy)butanoic acid]
[1]
  Sealed storage stability: sealed storage stable
[2]; 2-8° C., 6 M
  Crystalline Form: C
  Assay: 99.8 wt %
  Total Impurities: 0.2 wt %
  Water Content: 0.3 wt %
[2]; 2-8° C., D 0
  Crystalline Form: C
  Assay: 99.4 wt %
  Total Impurities: 0.3 wt %
  Water Content: 0.1 wt %
[2]; 25 ± 2° C., 60 ± 5% RH, 6 M
  Crystalline Form: C
  Assay: 99.3 wt %
  Total Impurities: 0.4 wt %
  Water Content: 0.3 wt %
[2]; 25 ± 2° C., 60 ± 5% RH, D 0
  Crystalline Form: C
  Assay: 99.4 wt %
  Total Impurities: 0.3 wt %
  Water Content: 0.1 wt %
[2]; 30 ± 2° C., 65 ± 5% RH, 3 M
  Crystalline Form: C
  Assay: 99.9 wt %
  Total Impurities: 0.4 wt %
  Water Content: 0.4 wt %
[2]; 30 ± 2° C., 65 ± 5% RH, 6 M
  Crystalline Form: C
  Assay: 99.3 wt %
  Total Impurities: 0.4 wt %
  Water Content: 0.1 wt %
[2]; 30 ± 2° C., 65 ± 5% RH, D 0
  Crystalline Form: C
  Assay: 99.4 wt %
  Total Impurities: 0.3 wt %
  Water Content: 0.1 wt %
[2]; 40 ± 2° C., 75 ± 5% RH, 6 M
  Crystalline Form: C
  Assay: 99.3 wt %
  Total Impurities: 0.7 wt %
  Water Content: 0.3 wt %
[2]; 40 ± 2° C., 75 ± 5% RH, D 0
  Crystalline Form: C
  Assay: 99.4 wt %
  Total Impurities: 0.3 wt %
  Water Content: 0.1 wt %
[2]; 2-8° C., 3 M
  Assay: 98.8 wt %
  Total Impurities: 0.4 wt %
  Water Content: 0.2 wt %
[2]; 25 ± 2° C., 60 ± 5% RH, 3 M
  Assay: 98.8 wt %
  Total Impurities: 0.5 wt %
  Water Content: 0.2 wt %
[2]; 40 ± 2° C., 75 ± 5% RH, 3 M
  Assay: 98.8 wt %
  Total Impurities: 0.6 wt %
  Water Content: 0.1 wt %
[2]; [3]
  Chemical stability of the crystalline sample: chemically stable
  Sealed storage stability: stable

Source: US20240092727A1, “CRYSTALLINE 4-((L-VALYL)OXY)BUTANOIC ACID” (XWPHARMA LTD., priority 2022, published 2024)
